Results reported in patent publication US11390922B2, “C-CBL mutations and uses thereof” (University of Chicago, priority 2010, dated 2022).
“Also recorded” adds a separate entry of the source.

What was measured:
A549 cells = assay: Cell survival of c-CBL wild type and mutant transfectants after treatment with c-Met and EGFR inhibitors (cell counting); format: cell-based, Human; settings: for sensitivity (cell survival) of c-CBL mutant versus wild type c-CBL transfected cells: A549 cells transiently transfected with c-CBL WT or mutants SH, Q, V, W*, different concentrations, 48 h treatment
Protocol: A549 and H226 cells were transiently transfected with empty vector (EV) or c-CBL wild type (WT) and mutants' constructs (SH: S80N/H94Y, Q: Q249E, V: V391I, W*: W802*). At 24 h, cells were recollected and seeded 5×10^4 cells/well in 24 well culture plate. Another 24 h, cells were treated with c-Met inhibitor SU11274 and EGFR inhibitor Tarceva in different concentrations. Cell survival was detected by cell counting after 48 h treatment.

EGFR = settings: refractory advanced NSCLC; cited from earlier work
Met kinase = settings: cited from earlier work
H358 NSCLC cells = assay: MTT assay of live cells after drug treatment of H358 cells with c-CBL knockdown; format: cell-based; settings: H358 clone 27 cells, 72 h after drug treatment
Protocol: H358 clone 27 cells expressing high levels of c-CBL were knocked down using a lentiviral construct (sh 27). Cells were treated with the indicated RTK inhibitors, PI-3K inhibitors or cisplatin (CDDP). Live cells were assessed 72 h after drug treatment using a MTT assay.
The effects of silencing wt c-CBL in combination with a variety of drugs that inhibit EGFR (erlotinib [Tarceva]), PI-3K (NVP, Wortmanin), MET (SU11274) on the growth of H358 NSCLC cells that endogenously express c-CBL-Wt were investigated. The H358 cells, which expressed high levels of c-CBL, were knocked down using a lentiviral construct (sh 27, directed against c-CBL-Wt in H358 clone 27 cells (black), or the sh SCR scrambled RNA control (white)). Cells were treated with RTK and P1-3K inhibitors, cisplatin (CDDP). Live cells were assessed 72 hours after drug treatment using an MTT assay.

Structure (SMILES) | sensitivity (cell survival) of c-CBL mutant versus wild type c-CBL transfected cells (A549 cells) | response to EGFR blockade (EGFR) | cell growth, cell cycle and apoptosis (Met kinase) | Met kinase autophosphorylation (Met kinase; sites important for PI3K and Ras pathway activation) | sensitivity of A549 cells containing c-CBL mutants versus wild type c-CBL (A549 cells; 1 μM SU11274, mutants S80N/H94Y, Q249E, V391I, W802* (FIG. 23)) | live cells: c-CBL-Wt knockdown (sh 27) versus scrambled shRNA control (H358 NSCLC cells)
C#Cc1cccc(Nc2ncnc3cc(OCCOC)c(OCCOC)cc23)c1 [Tarceva, erlotinib] | no difference; also recorded: no differential effects | 5-15% | – | – | – | –
Cc1[nH]c(/C=C2\C(=O)Nc3ccc(S(=O)(=O)N(C)c4cccc(Cl)c4)cc32)c(C)c1C(=O)N1CCN(C)CC1 [SU11274] | had more sensitivity to the c-Met inhibitor SU11274; also recorded: c-CBL mutants had more sensitivity to c-Met inhibitor SU11274 than wild type c-CBL | – | time- and dose-dependent reduced cell growth and induced G1 cell cycle arrest and apoptosis | reduced | c-CBL mutants are more sensitive than wild type c-CBL | silencing c-CBL-Wt significantly reduced the ability of SU11274 (also referred to as SU) to kill NSCLC cells
